Numbering of substitutions follows the chain as printed. Like-named read-outs stand apart in the source and are kept apart here. No end group written: not given here.
Tests used:
TNPO3 C511A = biological target: T1, TNPO3 C511A (Homo sapiens, UniProt Q9Y5L0, C511A); assay: ITC, ligand titrated into TNPO3 C511A; format: binding; details: for TNPO3 binding Kd, outcome in words: TNPO3 C511A, two replicates
T1 construct: full-length (FL) WT human TNPO3 were generated by synthesizing codon-optimized DNA fragments; His6 (N, cleaved yes); protein A (N, cleaved yes); made in house; host or cells: Escherichia coli BL21-(DE3) Star
T1 sequence (Q9Y5L0 1-923 C511A): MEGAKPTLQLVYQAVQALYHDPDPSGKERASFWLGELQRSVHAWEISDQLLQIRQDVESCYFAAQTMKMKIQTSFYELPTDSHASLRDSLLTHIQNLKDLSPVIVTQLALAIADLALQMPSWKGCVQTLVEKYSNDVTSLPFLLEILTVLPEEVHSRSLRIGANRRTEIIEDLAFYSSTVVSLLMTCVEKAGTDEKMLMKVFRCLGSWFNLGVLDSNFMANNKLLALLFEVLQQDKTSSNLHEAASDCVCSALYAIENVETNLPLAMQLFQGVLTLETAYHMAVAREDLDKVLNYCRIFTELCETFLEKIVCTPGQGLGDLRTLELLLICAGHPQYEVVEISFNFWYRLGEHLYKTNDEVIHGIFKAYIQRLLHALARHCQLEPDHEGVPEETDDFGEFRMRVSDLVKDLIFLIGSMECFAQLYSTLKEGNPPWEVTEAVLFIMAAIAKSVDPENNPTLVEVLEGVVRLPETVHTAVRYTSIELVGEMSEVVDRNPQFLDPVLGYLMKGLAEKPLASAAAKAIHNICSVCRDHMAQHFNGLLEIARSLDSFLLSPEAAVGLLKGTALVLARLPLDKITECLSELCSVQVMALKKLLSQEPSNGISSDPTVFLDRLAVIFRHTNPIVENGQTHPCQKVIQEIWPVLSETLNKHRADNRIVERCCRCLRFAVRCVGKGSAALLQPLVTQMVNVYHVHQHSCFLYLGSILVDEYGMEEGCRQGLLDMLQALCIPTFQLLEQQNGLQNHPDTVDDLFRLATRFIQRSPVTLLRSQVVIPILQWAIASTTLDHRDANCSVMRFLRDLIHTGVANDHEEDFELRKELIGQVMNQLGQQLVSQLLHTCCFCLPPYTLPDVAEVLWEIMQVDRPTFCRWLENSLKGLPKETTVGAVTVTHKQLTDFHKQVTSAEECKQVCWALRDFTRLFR
Description: (§1) ITC has been performed by a Malvern Microcal VP-ITC at 25 °C for all binding studies. Samples have been dissolved in Tris buffer containing 50 mM Tris–HCl, 150 mM NaCl, 2 mM TCEP, and 0.04% NaN3 at pH 7.5. Binding studies of CIRBP^RSY and SRSF1^RS were performed with TNPO3 WT, and studies of CIRBP (157–172) and its mutants/phosphorylations were performed with TNPO3 C511A, respectively. Injection has been carried out by a syringe containing ligand solution of 100 μM, which adds ligand step-wise into the cell containing 10 μM TNPO3 during 28 injections of 10 μL each. Data analysis, curve fitting, and calculation of Kd, ΔH, and ΔS have been carried out using Origin-based 7.0 software provided by the manufacturer. All replicated ITC data are shown in Supplementary Fig. 6 and Supplementary Table 1.

TNPO3 = assay: NMR binding studies with TNPO3 (1H-15N HSQC, 1H-13C HMQC, 1H 1D, STD); design: species or system human; details: for line broadening of peptide 1H signals upon addition of TNPO3 (1H NMR): 50 µM peptide, stoichiometric amount of TNPO3; for spectral changes of 15N-labeled cargo upon addition of TNPO3 (1H,15N HSQC): 60 µM cargo, one stoichiometric equivalent of TNPO3, 298 K; for spectral changes of 15N-labeled cargo upon addition of TNPO3 (1H,15N HSQC) / chemical shift perturbations of TNPO3 methyl groups upon ligand addition (1H,13C HMQC): pH 6.7; for chemical shift perturbations of TNPO3 methyl groups upon ligand addition (1H,13C HMQC): 100 µM [IM-methyl 13C] labeled TNPO3, one stoichiometric equivalent of ligand, 298 K
Description: All NMR studies for TNPO3 were carried out using the wild type protein. Protein samples for ^1H-^13C HMQC were prepared at a concentration of 100 μM and equilibrated in a buffer containing 50 mM Tris–HCl, pH 6.7, 150 mM NaCl, 2 mM TCEP and 10% D2O. Spectral acquisitions for TNPO3 free and in complex with CIRBP^RSY and SRSF1^RS, respectively were performed at 298 K on a 700 MHz Bruker Avance III NMR spectrometer equipped with a TCI triple-resonance cryoprobe. The pulse program was sfhmqcf2gpph and the spectra were recorded with 32 scans, interscan delay of 1 s, 160 points in F1, 1024 points in F2, 5283.879 Hz spectral width in F1, and 11,160.714 Hz spectral width in F2. Spectra were processed using Topspin 4.1.3.
Spectral acquisitions for TNPO3 free and in complex with mCIRBP^RSY, pCIRBP^RSY, and pSRSF1^RS, respectively, were performed at 298 K on a 600 MHz Bruker Avance Neo NMR spectrometer equipped with a TXI 600S3 probehead. The pulse program was hmqcgpphwg and the spectra were recorded with 64 scans, interscan delay of 1 s, 200 points in F1, 1024 points in F2, 4545.455 Hz spectral width in F1, and 7812.500 Hz spectral width in F2. Spectra were processed using Topspin 4.3.0.
For ^1H-^15N HSQC spectra, protein samples were equilibrated in a buffer containing 50 mM Tris–HCl, pH 6.7, 150 mM NaCl, 2 mM TCEP, 0.04% NaN3, and 10% D2O (with additional 20 mM MgCl2 for CIRBP phosphorylation kinetics). Data were recorded at 298 K on the 600 MHz Bruker Avance Neo NMR spectrometer equipped with a TXI 600S3 probehead. The pulse program was hsqcetfpf3gpsi and was recorded with 8-16 scans, interscan delay of 1 s, 128 points in F1, 1024 points in F2, 1949.318 Hz spectral width in F1, and 9615.385 Hz spectral width in F2. Spectra were processed using Topspin 4.3.0.

TNPO3 WT = biological target: T2, TNPO3 WT (Homo sapiens, UniProt Q9Y5L0); assay: ITC, ligand titrated into TNPO3 WT; format: binding; details: ITC; for Kd / ΔS: TNPO3 WT; for Kd: pH 7.5, read-out: TNPO3 binding Kd
T2 sequence (Q9Y5L0 1-923): T1 sequence (Q9Y5L0 1-923 C511A) with A511C
Description: as §1

[1] = 100 µM ligand into 10 µM TNPO3 C511A, 25 °C, 50 mM Tris–HCl, 150 mM NaCl, 2 mM TCEP, 0.04% NaN3, pH 7.5, error = SD of the fit

Row | Substance | Kd / affinity of binding to TNPO3 C511A (ITC), as given in Table 1 (TNPO3 C511A; [1]) | TNPO3 binding Kd, outcome in words (TNPO3 C511A) | line broadening of peptide 1H signals upon addition of TNPO3 (1H NMR) (TNPO3) | also measured
1 | GGSYRDSADSYATHNE [CIRBP (157-172) Y164A, synthetic CIRBP (157-172) peptide with point mutation Y164A] | No binding | No binding |  | 
2 | YYDYEIERFWRGGQYENFRV [ZCH18] |  |  | broadened | 
3 | SRDRRFRGRYRSPYSG [RBM39] |  |  | broadened | 
4 | GGSYRDSpYDSYATHNE [CIRBP (157-172) Y164pY, synthetic CIRBP (157-172) peptide with phosphorylated Y164] | decreased binding beyond being detectable or fittable | No binding |  | 
5 | pSRSF1^RS: SRSF1^RS phosphorylated in vitro using recombinant SRPK1 (DGPRSPSYGRSRSRSRS; also: multiple phosphoserines, sites not listed) [reference compound] |  |  |  | spectral changes of 15N-labeled cargo upon addition of TNPO3 (1H,15N HSQC) (TNPO3): extensive line broadening of several NMR signals; chemical shift perturbations of TNPO3 methyl groups upon ligand addition (1H,13C HMQC) (TNPO3): led to CSPs of several TNPO3 ^1H,^13C cross-peaks; Kd (TNPO3 WT; 25 °C, replicate 1 (rep1)): 2490 ± 400 nM; Kd (TNPO3 WT; 25 °C, replicate 2 (rep2)): 2460 ± 500 nM; ΔS (TNPO3 WT; replicate 1 (rep1)): –9.12 cal/mol/deg; ΔS (TNPO3 WT; replicate 2 (rep2)): –34.0 cal/mol/deg
6 | PSGGSYRDSYESYGNS [RBMX/RMXL1, synthetic peptide RBMX (276–291), CIRBP-like motif] |  |  | broadened | change of peptide 1H 1D NMR signals with sub-stoichiometric TNPO3 (TNPO3; 100 µM RSY regions and 10 µM TNPO3 (peer review reply)): slight decrease of peptide signal intensity
7 | GGSYRDSYDSYATHNE [CIRBP (157-172) WT] |  |  |  | Kd (TNPO3 C511A; 100 µM ligand into 10 µM TNPO3 C511A, 25 °C, 50 mM Tris–HCl, 150 mM NaCl, 2 mM TCEP, 0.04% NaN3, pH 7.5, error = SD of the fit, read-out: Kd / affinity of binding to TNPO3 C511A (ITC), as given in Table 1): 5780 ± 1630 nM
8 | GGSYADSYDSYATHNE [CIRBP (157-172) R161A, synthetic CIRBP (157-172) peptide with point mutation R161A] | No binding | No binding |  | 
9 | GGSYRDSYDSAATHNE [CIRBP (157-172) Y167A, synthetic CIRBP (157-172) peptide with point mutation Y167A] | Low affinity | Low affinity |  | 
10 | DGPRSPSYGRSRSRSRS [SRSF1^RS, recombinant canonical SR/RS-NLS of human SRSF1 (195-211), unphosphorylated, reference compound] |  |  |  | spectral changes of 15N-labeled cargo upon addition of TNPO3 (1H,15N HSQC) (TNPO3): weak binding; chemical shift perturbations of TNPO3 methyl groups upon ligand addition (1H,13C HMQC) (TNPO3): no binding was observed; Kd of binding to TNPO3 (ITC), as given in text and figures (TNPO3 WT; 100 µM ligand into 10 µM TNPO3 WT, 28 injections of 10 µL, 25 °C, 50 mM Tris–HCl, 150 mM NaCl, 2 mM TCEP, 0.04% NaN3, pH 7.5, error = SD of the fit): no binding was detectable
11 | SQVYRCGFQPFNQHLLPW [P5CS] |  |  | broadened | 
12 | GGSYRDSYDpSYATHNE [CIRBP (157-172) S166pS, synthetic CIRBP (157-172) peptide with phosphorylated S166] | decreased binding beyond being detectable or fittable | No binding |  | 
13 | GGSYRDSYDSpYATHNE [CIRBP (157-172) Y167pY, synthetic CIRBP (157-172) peptide with phosphorylated Y167] |  | Low affinity |  | 

Reference: article PMC12075686, “Structural basis of phosphorylation-independent nuclear import of CIRBP by TNPO3” (Nature Communications, 2025)
